Test results reported in patent US8987195B2 (priority 2012, dated 2015).
Like-named read-outs stand apart in the source and are kept apart here.

Experiments:
[1] = molecular target: HCV NS3/4A protease genotype 1b (Hepatitis C virus genotype 1b, UniProt P26663); assay: HCV NS3/4A protease time-resolved fluorescence (TRF) assay, Ki against genotype 1b; type: biochemical
How it was run: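 Ki was converted from fitted IC50 using IC50=Ki(1+[S]/KM) and 25 nM substrate. Protease (genotype 1b 0.2 nM, A156T 0.4 nM, 3a 0.025 nM) and compound were pre-mixed 30 min in pH 7.5 HEPES/NaCl/glycerol/DTT buffer. Cleavage then proceeded 2.5 h at room temperature, detected by time-resolved europium fluorescence (340/615 nm).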

[2] = molecular target: HCV NS3/4A protease genotype 3a (Hepatitis C virus genotype 3a, UniProt Q81495); assay: HCV NS3/4A protease time-resolved fluorescence (TRF) assay, Ki against genotype 3a; type: biochemical
Experimental: (§1) Measuring NS3/4A Inhibitory Activity (Ki) Against Genotype 1b, Against A156T Mutants and Against Genotype 3a
(§2) One assay for measuring inhibitory activity is HCV NS3 protease time-resolved fluorescence (TRF) assay as described below and in Mao et al., Anal. Biochem. 373:1-8, 2008 and International Patent Application Publication WO 2006/102087. A NS3 protease assay can be performed, for example, in a final volume of 20 μl assay buffer containing 50 mM HEPES, pH 7.5, 150 mM NaCl, 15% glycerol, 0.15% TRITON X-100, 10 mM DTT, and 0.1% PEG 8000. NS3 and NS4A protease is pre-incubated with various concentrations of inhibitors in DMSO for 30 min. The reaction is initiated by adding the TRF peptide substrate (final concentration 25 nM). NS3 mediated hydrolysis of the substrate was run for 2.5 hours at room temperature. Product fluorescence is detected using A Pherastar Plus plate reader (BMG) or Envision (Perkin Elmer Life and Analytical Sciences with excitation at 340 nm and emission at 615 nm using the appropriate delay time optimized for the europium fluorescence probe. Testing concentrations of different enzyme forms are selected to result in a signal to background ratio (S/B) of 10-30. IC50 values are derived using a standard four-parameter fit to the data. Ki values are derived from IC50 values using the following formula, IC50=Ki(1+[S]/KM), Eqn (1), where [S] is the concentration of substrate peptide in the reaction and KM is the Michaelis constant. See P. Gallinari et al., 38 BIOCHEM. 5620-32 (1999); P. Gallinari et al., 72 J. VIROL. 6758-69 (1998); M. Taliani et al., 240 ANAL. BIOCHEM. 60-67 (1996); Mao et al., Analytical Biochemistry 373: 1-8, 2008.
(§3) The assay described above was run against genotype 1b at a concentration of 0.2 nM, against A156T mutant strains at a concentration of 0.4 nM, and against genotype 3a at a concentration of 0.025 nM.

[3] = molecular target: HCV NS3/4A protease A156T mutant (Hepatitis C virus genotype 1b, UniProt P26663, A1182T); assay: HCV NS3/4A protease time-resolved fluorescence (TRF) assay, Ki against A156T mutant; type: biochemical; conditions: read-out: IC50 [gt-1b A156T]
Experimental: as §1, §2, §3

[4] = tested on: HCV genotype 1b replicon; assay: HCV replicon assay, genotype 1b replicon EC50; type: cell-based, Hepatitis C virus; conditions: Hepatitis C virus, read-out: EC50 [gt-1b]
How it was run: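 Readout was replicon RNA copy number, by 32P-probe protection or TaqMan normalized to cellular cyclophilin A RNA, or luciferase activity for luciferase:Neo^r fusion lines. Cells were exposed to serially diluted compound for 24-48 hours without G418, then washed and lysed. EC50 derived from four-parameter fit relative to DMSO.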

[5] = IC50 [gt-1b] (nM), NS3/4A genotype 1b, enzyme 0.2 nM, K+ salt
[6] = NS3/4A gt-1b A156T mutant, enzyme 0.4 nM, K+ salt
[7] = IC50 [gt-1b], NS3/4A protease TRF assay, genotype 1b enzyme 0.2 nM
[8] = NS3/4A protease TRF assay, A156T mutant enzyme 0.4 nM
[9] = IC50 [gt-1b], NS3/4A protease TRF assay, genotype 1b enzyme 0.2 nM, K+ salt
[10] = NS3/4A protease TRF assay, A156T mutant enzyme 0.4 nM, K+ salt
[11] = HCV replicon, genotype 1b, K+ salt

Compound | IC50 [2] | IC50 [1, 7] | IC50 [3, 8] | EC50 ([4]; HCV replicon, genotype 1b) | IC50 [1, 9] | IC50 [3, 10] | EC50 [4, 11] | also measured
COc1ccc2nc(C)c3c(c2c1)CC[C@]1(C[C@H]2C(=O)N[C@]4(C(=O)NS(=O)(=O)C5(C)CC5)C[C@H]4/C=C\CCCCC[C@H](NC(=O)OC4CCC4)C(=O)N2C1)O3 [Example 199, cyclobutyl [(2R,6S,12Z,13aS,14aR,16aS)-9′-methoxy-5′-methyl-14a-{[(1-methylcyclopropyl)sulfonyl]carbamoyl}-5,16-dioxo-1,1′,2′,5,6,7,8,9,10,11,13a,14,14a,15,16,16a-hexadecahydrospiro[cyclopropa[e]pyrrolo[1,2-a][1,4]diazacyclopentadecine-2,3′-pyrano[2,3-c]quinolin]-6-yl]carbamate] | 0.287 nM | – | – | – | – | – | – | IC50 [1, 5]: 0.003 nM; IC50 [3, 6]: 0.0462 nM; EC50 ([4]; genotype 1b replicon, K+ salt): 1 nM
Cc1nc2ccc(C(F)(F)F)cc2c2c1O[C@]1(CC2)C[C@H]2C(=O)N[C@]3(C(=O)NS(=O)(=O)C4(C)CC4)C[C@H]3/C=C\CCCCC[C@H](NC(=O)OCC(C)(C)C)C(=O)N2C1 [Example 255, 2,2-dimethylpropyl [(2R,6S,12Z,13aS,14aR,16aS)-5′-methyl-14a-{[(1-methylcyclopropyl)sulfonyl]carbamoyl}-5,16-dioxo-9′-(trifluoromethyl)-1,1′,2′,5,6,7,8,9,10,11,13a,14,14a,15,16,16a-hexadecahydrospiro[cyclopropa[e]pyrrolo[1,2-a][1,4]diazacyclopentadecine-2,3′-pyrano[2,3-c]quinolin]-6-yl]carbamate] | 2.86 nM | – | – | – | – | – | – | IC50 ([1]; IC50 [gt-1b] (nM), NS3/4A genotype 1b, enzyme 0.2 nM): 0.015 nM; IC50 ([3]; NS3/4A gt-1b A156T mutant, enzyme 0.4 nM): 0.679 nM; EC50 ([4]; genotype 1b replicon): 50.9 nM
COc1ccc2nc(C)c3c(c2c1)C(F)(F)C[C@]1(C[C@H]2C(=O)N[C@]4(C(=O)NS(=O)(=O)C5(C)CC5)C[C@H]4/C=C\CCCCC[C@H](NC(=O)OCC(C)C)C(=O)N2C1)O3 [Example 266, 2-methylpropyl [(2S,6S,12Z,13aS,14aR,16aS)-1′,1′-difluoro-9′-methoxy-5′-methyl-14a-{[(1-methylcyclopropyl)sulfonyl]carbamoyl}-5,16-dioxo-1,1′,2′,5,6,7,8,9,10,11,13a,14,14a,15,16,16a-hexadecahydrospiro[cyclopropa[e]pyrrolo[1,2-a][1,4]diazacyclopentadecine-2,3′-pyrano[2,3-c]quinolin]-6-yl]carbamate] | 2.1 nM | – | – | – | – | – | – | IC50 [1, 5]: 0.014 nM; IC50 [3, 6]: 0.384 nM; EC50 ([4]; genotype 1b replicon, K+ salt): 4.47 nM
COc1ccc2nc(C)c3c(c2n1)CC[C@]1(C[C@H]2C(=O)N[C@]4(C(=O)NS(=O)(=O)C5(C)CC5)C[C@H]4/C=C\CCCCC[C@H](NC(=O)OCC(C)(C)C)C(=O)N2C1)O3 [Example 361, 2,2-dimethylpropyl [(2R,6S,12Z,13aS,14aR,16aS)-2′-methoxy-6′-methyl-14a-{[(1-methylcyclopropyl)sulfonyl]carbamoyl}-5,16-dioxo-1,5,6,7,8,9,9′,10,10′,11,13a,14,14a,15,16,16a-hexadecahydrospiro[cyclopropa[e]pyrrolo[1,2-a][1,4]diazacyclopentadecine-2,8′-pyrano[2,3-c][1,5]naphthyridin]-6-yl]carbamate] | 0.433 nM | 0.012 nM | 0.241 nM | 4.43 nM | – | – | – | –
CC(C)(C)COC(=O)N[C@H]1CCCCC/C=C\[C@@H]2C[C@@]2(C(=O)NS(=O)(=O)C2(C)CC2)NC(=O)[C@@H]2C[C@]3(CCc4c(c(C(F)F)nc5ccc(Cl)cc45)O3)CN2C1=O [Example 369, 2,2-dimethylpropyl [(2R,6S,12Z,13aS,14aR,16aS)-9′-chloro-5′-(difluoromethyl)-14a-{[(1-methylcyclopropyl)sulfonyl]carbamoyl}-5,16-dioxo-1,1′,2′,5,6,7,8,9,10,11,13a,14,14a,15,16,16a-hexadecahydrospiro[cyclopropa[e]pyrrolo[1,2-a][1,4]diazacyclopentadecine-2,3′-pyrano[2,3-c]quinolin]-6-yl]carbamate] | 1.18 nM | 0.018 nM | 1.16 nM | 15.1 nM | – | – | – | –
COc1ccc2nc(C)c3c(c2c1)[C@H](F)C[C@]1(C[C@H]2C(=O)N[C@]4(C(=O)NS(=O)(=O)C5(C)CC5)C[C@H]4/C=C\CCCCC[C@H](NC(=O)OCC(C)(C)F)C(=O)N2C1)O3 [Example 370, 2-fluoro-2-methylpropyl [(1′R,2S,6S,12Z,13aS,14aR,16aS)-1′-fluoro-9′-methoxy-5′-methyl-14a-{[(1-methylcyclopropyl)sulfonyl]carbamoyl}-5,16-dioxo-1,1′,2′,5,6,7,8,9,10,11,13a,14,14a,15,16,16a-hexadecahydrospiro[cyclopropa[e]pyrrolo[1,2-a][1,4]diazacyclopentadecine-2,3′-pyrano[2,3-c]quinolin]-6-yl]carbamate] | 0.149 nM | – | – | – | 0.009 nM | 0.037 nM | 8.56 nM | –
COc1ccc2nc(C(F)(F)F)c3c(c2c1)CC[C@]1(C[C@H]2C(=O)N[C@]4(C(=O)NS(=O)(=O)C5(C)CC5)C[C@H]4/C=C\CCCCC[C@H](NC(=O)OCC(C)(C)C)C(=O)N2C1)O3 [Example 382, 2,2-dimethylpropyl [(2R,6S,12Z,13aS,14aR,16aS)-9′-methoxy-14a-{[(1-methylcyclopropyl)sulfonyl]carbamoyl}-5,16-dioxo-5′-(trifluoromethyl)-1,1′,2′,5,6,7,8,9,10,11,13a,14,14a,15,16,16a-hexadecahydrospiro[cyclopropa[e]pyrrolo[1,2-a][1,4]diazacyclopentadecine-2,3′-pyrano[2,3-c]quinolin]-6-yl]carbamate] | 1.09 nM | – | – | – | 0.028 nM | 2.34 nM | 3.61 nM | –
COc1ccc2nc(C(F)(F)F)c3c(c2c1)CC[C@]1(C[C@H]2C(=O)N[C@]4(C(=O)NS(=O)(=O)C5(C)CC5)C[C@H]4/C=C\CCCCC[C@H](NC(=O)OC4(C)CCC4)C(=O)N2C1)O3 [Example 451, 1-methylcyclobutyl [(2R,6S,12Z,13aS,14aR,16aS)-9′-methoxy-14a-{[(1-methylcyclopropyl)sulfonyl]carbamoyl}-5,16-dioxo-5′-(trifluoromethyl)-1,1′,2′,5,6,7,8,9,10,11,13a,14,14a,15,16,16a-hexadecahydrospiro[cyclopropa[e]pyrrolo[1,2-a][1,4]diazacyclopentadecine-2,3′-pyrano[2,3-c]quinolin]-6-yl]carbamate] | 0.504 nM | 0.006 nM | 0.338 nM | 1.86 nM | – | – | – | –
CC[C@@H](C)OC(=O)N[C@H]1CCCCC/C=C\[C@@H]2C[C@@]2(C(=O)NS(=O)(=O)C2(C)CC2)NC(=O)[C@@H]2C[C@]3(CCc4c(c(C(F)(F)F)nc5ccc(OC)cc45)O3)CN2C1=O [Example 459, (2R)-butan-2-yl [(2R,6S,12Z,13aS,14aR,16aS)-9′-methoxy-14a-{[(1-methylcyclopropyl)sulfonyl]carbamoyl}-5,16-dioxo-5′-(trifluoromethyl)-1,1′,2′,5,6,7,8,9,10,11,13a,14,14a,15,16,16a-hexadecahydrospiro[cyclopropa[e]pyrrolo[1,2-a][1,4]diazacyclopentadecine-2,3′-pyrano[2,3-c]quinolin]-6-yl]carbamate] | 2.31 nM | – | – | – | 0.049 nM | 2.65 nM | 4.4 nM | –
